Measurements reported in patent US6339045B1, “N-(unsubstituted or substituted)-4-substituted-6-(unsubstituted or substituted)phenoxy-2-pyridinecarboxamides or thiocarboxamides, processes for producing the same, and herbicides” (Kureha Kagaku Kogyo Kabushiki Kaisha, priority 1995, dated 2002).

Tests used:
Test in all cases: Herbicidal effect by foliage and soil treatment
Format in all cases: in vivo
Conditions in all cases: 10 g ai/10a, evaluated after 14 days
[1] = system: black nightshade (Solanum nigrum)
How it was run: (§1)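 Post-emergence spray, cotyledon to bifoliate stage; Tween 20/water vehicle, fixed dose per area; greenhouse 19–25 °C; 14 d; visual growth rating vs untreated.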

[2] = system: cleavers (Galium aparine)
How it was run: as §1

[3] = system: common blackjack (Bidens pilosa)
How it was run: as §1

[4] = system: common chickweed (Stellaria media)
How it was run: as §1

[5] = system: field bindweed (Convolvulus arvensis)
How it was run: as §1

[6] = system: ivyleafspeedwell (Veronica hederaefolia)
How it was run: as §1

[7] = system: kediock (Sinapis arvensis)
How it was run: as §1

[8] = system: redroot pigweed (Amaranthus retroflexus)
How it was run: as §1

[9] = system: sicklepod (Cassia obtusifolia)
How it was run: as §1

[10] = system: velvetleaf (Abutilon theophrasti)
How it was run: as §1

[11] = system: wild chamomile (Matricaria chamomilla)
How it was run: as §1

Row | Compound | herbicidal activity rating, SN (Solanum nigrum) [1] | herbicidal activity rating, GA (Galium aparine) [2] | herbicidal activity rating, BP (Bidens pilosa) [3] | herbicidal activity rating, SM (Stellaria media) [4] | herbicidal activity rating, CA (Convolvulus arvensis) [5] | herbicidal activity rating, VH (Veronica hederaefolia) [6] | herbicidal activity rating, SA (Sinapis arvensis) [7] | herbicidal activity rating, AR (Amaranthus retroflexus) [8] | herbicidal activity rating, CO (Cassia obtusifolia) [9] | herbicidal activity rating, AT (Abutilon theophrasti) [10] | herbicidal activity rating, MC (Matricaria chamomilla) [11]
1 | COc1cc(Oc2cccc(OC(F)F)c2)nc(C(=O)NC(C)C)c1 [Compound I-38] | 5 (percentage of weeds killed was not less than 80%) | 5 (percentage of weeds killed was not less than 80%) | 2 (percentage of weeds killed was not less than 20% and less than 40%) | 4 (percentage of weeds killed was not less than 60% and less than 80%) | 4 (percentage of weeds killed was not less than 60% and less than 80%) | 5 (percentage of weeds killed was not less than 80%) | 5 (percentage of weeds killed was not less than 80%) | 5 (percentage of weeds killed was not less than 80%) | 4 (percentage of weeds killed was not less than 60% and less than 80%) | 4 (percentage of weeds killed was not less than 60% and less than 80%) | 4 (percentage of weeds killed was not less than 60% and less than 80%)
2 | CCOCNC(=O)c1cc(OC)cc(Oc2cccc(C(F)(F)F)c2)n1 [Compound I-87, N-(ethoxymethyl)-4-methoxy-6-{3-(trifluoromethyl)phenoxy}-2-pyridine carboxamide] | 5 (percentage of weeds killed was not less than 80%) | 5 (percentage of weeds killed was not less than 80%) | 5 (percentage of weeds killed was not less than 80%) | 5 (percentage of weeds killed was not less than 80%) | 5 (percentage of weeds killed was not less than 80%) | 5 (percentage of weeds killed was not less than 80%) | 5 (percentage of weeds killed was not less than 80%) | 5 (percentage of weeds killed was not less than 80%) | 5 (percentage of weeds killed was not less than 80%) | 5 (percentage of weeds killed was not less than 80%) | 5 (percentage of weeds killed was not less than 80%)
3 | COc1cc(Oc2cccc(C(F)(F)F)c2)nc(C(=O)NCCCS(C)(=O)=O)c1 [Compound I-77] | 5 (percentage of weeds killed was not less than 80%) | 5 (percentage of weeds killed was not less than 80%) | 4 (percentage of weeds killed was not less than 60% and less than 80%) | 4 (percentage of weeds killed was not less than 60% and less than 80%) | 4 (percentage of weeds killed was not less than 60% and less than 80%) | 5 (percentage of weeds killed was not less than 80%) | 5 (percentage of weeds killed was not less than 80%) | 5 (percentage of weeds killed was not less than 80%) | 5 (percentage of weeds killed was not less than 80%) | 5 (percentage of weeds killed was not less than 80%) | 3 (percentage of weeds killed was not less than 40% and less than 60%)
4 | COc1cc(Oc2cccc(C(F)(F)F)c2)nc(C(=O)NC(C)C)c1 [Compound I-37, N-(i-propyl)-4-methoxy-6-{3-(trifluoromethyl)phenoxy}-2-pyridine carboxamide] | 5 (percentage of weeds killed was not less than 80%) | 5 (percentage of weeds killed was not less than 80%) | 5 (percentage of weeds killed was not less than 80%) | 5 (percentage of weeds killed was not less than 80%) | 5 (percentage of weeds killed was not less than 80%) | 5 (percentage of weeds killed was not less than 80%) | 5 (percentage of weeds killed was not less than 80%) | 5 (percentage of weeds killed was not less than 80%) | 5 (percentage of weeds killed was not less than 80%) | 4 (percentage of weeds killed was not less than 60% and less than 80%) | 5 (percentage of weeds killed was not less than 80%)
5 | COc1cc(Oc2cccc(C(F)(F)F)c2)nc(C(=O)NCCF)c1 [Compound I-74] | 5 (percentage of weeds killed was not less than 80%) | 5 (percentage of weeds killed was not less than 80%) | 5 (percentage of weeds killed was not less than 80%) | 5 (percentage of weeds killed was not less than 80%) | 5 (percentage of weeds killed was not less than 80%) | 5 (percentage of weeds killed was not less than 80%) | 5 (percentage of weeds killed was not less than 80%) | 5 (percentage of weeds killed was not less than 80%) | 5 (percentage of weeds killed was not less than 80%) | 5 (percentage of weeds killed was not less than 80%) | 5 (percentage of weeds killed was not less than 80%)
6 | COc1cc(Oc2cccc(C(F)(F)F)c2)nc(C(=O)NCc2ccccc2)c1 [Compound I-45, N-benzyl-4-methoxy-6-{3-(trifluoromethyl)phenoxy}-2-pyridine carboxamide] | 5 (percentage of weeds killed was not less than 80%) | 5 (percentage of weeds killed was not less than 80%) | 5 (percentage of weeds killed was not less than 80%) | 5 (percentage of weeds killed was not less than 80%) | 5 (percentage of weeds killed was not less than 80%) | 5 (percentage of weeds killed was not less than 80%) | 5 (percentage of weeds killed was not less than 80%) | 5 (percentage of weeds killed was not less than 80%) | 5 (percentage of weeds killed was not less than 80%) | 4 (percentage of weeds killed was not less than 60% and less than 80%) | 2 (percentage of weeds killed was not less than 20% and less than 40%)
7 | CNC(=O)c1cc(OC)cc(Oc2cccc(C(F)(F)F)c2)n1 [Compound I-46] | 5 (percentage of weeds killed was not less than 80%) | 5 (percentage of weeds killed was not less than 80%) | 3 (percentage of weeds killed was not less than 40% and less than 60%) | 5 (percentage of weeds killed was not less than 80%) | 5 (percentage of weeds killed was not less than 80%) | 5 (percentage of weeds killed was not less than 80%) | 5 (percentage of weeds killed was not less than 80%) | 5 (percentage of weeds killed was not less than 80%) | 5 (percentage of weeds killed was not less than 80%) | 4 (percentage of weeds killed was not less than 60% and less than 80%) | 3 (percentage of weeds killed was not less than 40% and less than 60%)
